# Assay results published in PubChem BioAssay (NCI).
#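 At the GI50, growth is halved. The concentration for full growth arrest is given as TGI.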
# Tests used:
# Test in all cases: DTP human tumour cell line panel, 384-well format
# [1] = tested on: BT-549 breast
# [2] = tested on: MCF7 breast
# [3] = tested on: HL-60(TB) leukemia
# [4] = tested on: K-562 leukemia
# [5] = tested on: HS 578T breast
# [6] = tested on: HCT-15 colon
# [7] = tested on: UACC-62 melanoma
# [8] = tested on: CAKI-1 renal
# [9] = tested on: SNB-75 CNS
# [10] = tested on: MDA-MB-435 melanoma
# [11] = tested on: T-47D breast
# [12] = tested on: HOP-62 NSCLC
# [13] = tested on: SW-620 colon
# [14] = tested on: MOLT-4 leukemia
# [15] = tested on: MALME-3M melanoma
# [16] = tested on: SK-MEL-2 melanoma
# [17] = tested on: NCI-H460 NSCLC
# [18] = tested on: RXF 393 renal
# [19] = tested on: SK-OV-3 ovarian
# [20] = tested on: OVCAR-5 ovarian
# [21] = tested on: NCI-H226 lung
# [22] = tested on: SR leukemia
# [23] = tested on: NCI-H23 lung
# [24] = tested on: SK-MEL-5 melanoma
# [25] = tested on: EKVX NSCLC
# [26] = tested on: A549 NSCLC
# [27] = tested on: HCC-2998 colon
# [28] = tested on: MDA-MB-231 breast
# [29] = tested on: SF-539 CNS
# [30] = tested on: UO-31 renal
# [31] = tested on: TK-10 renal
# [32] = tested on: NCI-H322M lung
# [33] = tested on: SF-295 CNS
# [34] = tested on: M14 melanoma
# [35] = tested on: MDA-MB-468 breast
# [36] = tested on: PC-3 prostate
# [37] = tested on: NCI-H522 lung
# [38] = tested on: OVCAR-3 ovarian
# [39] = tested on: SK-MEL-28 melanoma
# [40] = tested on: SN12C renal
# [41] = tested on: A498 renal
# [42] = tested on: UACC-257 melanoma
# [43] = tested on: ACHN renal
# [44] = tested on: 786-0 renal
# [45] = tested on: SF-268 CNS
# [46] = tested on: OVCAR-4 ovarian
# [47] = tested on: HOP-92 NSCLC
# [48] = tested on: IGROV1 ovarian
# [49] = tested on: COLO 205 colon
# [50] = tested on: U251 glioblastoma
# [51] = tested on: LOX IMVI melanoma
# [52] = tested on: NCI/ADR-RES ovarian
# [53] = tested on: HCT-116 colon
# [54] = tested on: SNB-19 CNS
# [55] = tested on: DU-145 prostate
# [56] = tested on: KM12 colon
# [57] = tested on: RPMI-8226 leukemia
# [58] = tested on: HT29 colon
smiles,measurement,setting,value
O=C(c1ccc(/C=C/c2n[nH]c3ccccc23)cc1)N1CCNCC1,GI50,[1],0.597 µM
same,TGI,[1],2.29 µM
same,GI50,[2],2.9 µM
same,TGI,[2],16.3 µM
same,GI50,[3],0.416 µM
same,TGI,[3],15 µM
same,GI50,[4],0.214 µM
same,TGI,[4],1.08 µM
same,GI50,[5],2.47 µM
same,TGI,[5],7.17 µM
same,GI50,[6],3.41 µM
same,TGI,[6],18.9 µM
same,GI50,[7],7.66 µM
same,TGI,[7],20.8 µM
same,GI50,[8],3.37 µM
same,TGI,[8],16.4 µM
same,GI50,[9],3.4 µM
same,TGI,[9],9.95 µM
same,GI50,[10],2.01 µM
same,TGI,[10],13.3 µM
same,GI50,[11],17.7 µM
same,TGI,[11],31.9 µM
same,GI50,[12],2.32 µM
same,TGI,[12],16.5 µM
same,GI50,[13],3.1 µM
same,TGI,[13],14.1 µM
same,GI50,[14],0.252 µM
same,TGI,[14],1.27 µM
same,GI50,[15],2.7 µM
same,TGI,[15],10.8 µM
same,GI50,[16],14.5 µM
same,TGI,[16],27.7 µM
same,GI50,[17],0.543 µM
same,TGI,[17],10.9 µM
same,GI50,[18],6.96 µM
same,TGI,[18],19.7 µM
same,GI50,[19],7.59 µM
same,TGI,[19],21 µM
same,GI50,[20],3.48 µM
same,TGI,[20],> 100 µM
same,GI50,[21],1.32 µM
same,TGI,[21],4.89 µM
same,GI50,[22],0.18 µM
same,TGI,[22],0.32 µM
same,GI50,[23],2.69 µM
same,TGI,[23],13.6 µM
same,GI50,[24],5.38 µM
same,TGI,[24],19.4 µM
same,GI50,[25],3.23 µM
same,TGI,[25],14.7 µM
same,GI50,[26],1.96 µM
same,TGI,[26],19.9 µM
same,GI50,[27],11 µM
same,TGI,[27],27.4 µM
same,GI50,[28],3.41 µM
same,TGI,[28],17.9 µM
same,GI50,[29],1.53 µM
same,TGI,[29],5.75 µM
same,GI50,[30],2.69 µM
same,TGI,[30],17.2 µM
same,GI50,[31],4.91 µM
same,TGI,[31],22.7 µM
same,GI50,[32],11.7 µM
same,TGI,[32],27.8 µM
same,GI50,[33],2.12 µM
same,TGI,[33],17.3 µM
same,GI50,[34],4.3 µM
same,TGI,[34],17 µM
same,GI50,[35],1.07 µM
same,TGI,[35],16.6 µM
same,GI50,[36],5.28 µM
same,TGI,[36],21.2 µM
same,GI50,[37],0.529 µM
same,TGI,[37],5.51 µM
same,GI50,[38],11.6 µM
same,TGI,[38],24.5 µM
same,GI50,[39],11.7 µM
same,TGI,[39],24 µM
same,GI50,[40],1.88 µM
same,TGI,[40],10.6 µM
same,GI50,[41],13.2 µM
same,TGI,[41],26 µM
same,GI50,[42],5.94 µM
same,TGI,[42],17.8 µM
same,GI50,[43],4.29 µM
same,TGI,[43],18.3 µM
same,GI50,[44],10.7 µM
same,TGI,[44],22.7 µM
same,GI50,[45],4.18 µM
same,TGI,[45],19.5 µM
same,GI50,[46],21.7 µM
same,TGI,[46],37.5 µM
same,GI50,[47],2.32 µM
same,TGI,[47],11 µM
same,GI50,[48],4.66 µM
same,TGI,[48],18.2 µM
same,GI50,[49],0.635 µM
same,TGI,[49],3.89 µM
same,GI50,[50],11.2 µM
same,TGI,[50],23.7 µM
same,GI50,[51],2.99 µM
same,TGI,[51],10.8 µM
same,GI50,[52],13.8 µM
same,TGI,[52],26.9 µM
same,GI50,[53],1.77 µM
same,TGI,[53],18.6 µM
same,GI50,[54],12.1 µM
same,TGI,[54],27.7 µM
same,GI50,[55],5.22 µM
same,TGI,[55],20.7 µM
same,GI50,[56],0.118 µM
same,TGI,[56],10.8 µM
same,GI50,[57],1.17 µM
same,TGI,[57],11.1 µM
same,GI50,[58],3.1 µM
same,TGI,[58],14.6 µM
